# In the supplement of paper PMC5579334:
# ± gives the standard deviation of the averaged measurements.
# What was measured:
# HS-PSS [1] = assay: drug sensitivity score (DSS, CellTiter-Glo viability, 72 h) (DSS (dimensionless)); higher = more sensitive; extreme values may be limits of the assay
# Procedure, shortened: (§1)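 MPNST cell lines and primary human Schwann cells (750–1000 cells per well) went into 384-well plates preprinted with each compound at five concentrations in 10-fold steps. Plates were incubated 72 h at 37 °C, 5% CO2. Viability was read as CellTiter-Glo ATP luminescence, scaled between vehicle and positive-control wells, with duplicates averaged where present. Percent inhibition is at the top concentration; drug sensitivity score and relative IC50 (censored at top concentration) come from four-parameter logistic fits.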
# HS-Sch-2 [2] = assay: as above
# Procedure, shortened: as §1
# [3] = system: HSC1 (primary human Schwann cells); assay: as above
# Procedure, shortened: as §1
# [4] = system: HSC2 (primary human Schwann cells); assay: as above
# Procedure, shortened: as §1
# S1507-2 [5] = assay: as above
# Procedure, shortened: as §1
# S462 [6] = assay: as above
# Procedure, shortened: as §1
# ST8814 [7] = assay: as above
# Procedure, shortened: as §1
# STS26T [8] = assay: as above
# Procedure, shortened: as §1
# YST-1 [9] = assay: as above
# Procedure, shortened: as §1
# HS-PSS [10] = assay: drug sensitivity score (DSS, CellTox-Green cytotoxicity, 72 h) (DSS (dimensionless)); higher = more cytotoxic; extreme values may be limits of the assay
# Procedure, shortened: (§2)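 MPNST cell lines and primary human Schwann cells were incubated 72 h at 37 °C in 384-well plates holding five 10-fold compound dilutions. CellTox-Green was added before seeding at a final 1:1000 dilution and reported fluorescence from DNA released by disrupted cells. Signals were scaled to vehicle and positive-control wells, and cultures failing plate quality control were dropped. Drug sensitivity score and relative IC50 come from four-parameter logistic fits, with IC50 censored at the top concentration.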
# [11] = system: HSC1 (primary human Schwann cells); assay: as above
# Procedure, shortened: as §2
# [12] = system: HSC2 (primary human Schwann cells); assay: as above
# Procedure, shortened: as §2
# S1507-2 [13] = assay: as above
# Procedure, shortened: as §2
# ST8814 [14] = assay: as above
# Procedure, shortened: as §2
# STS26T [15] = assay: as above
# Procedure, shortened: as §2
# HS-PSS [16] = assay: % inhibition of CellTiter-Glo viability at highest tested concentration (72 h), relative to DMSO and benzethonium chloride controls; higher = more inhibition
# Procedure, shortened: as §1
# HS-Sch-2 [17] = assay: as above
# Procedure, shortened: as §1
# [18] = system: HSC1 (primary human Schwann cells); assay: as above
# Procedure, shortened: as §1
# [19] = system: HSC2 (primary human Schwann cells); assay: as above
# Procedure, shortened: as §1
# S1507-2 [20] = assay: as above
# Procedure, shortened: as §1
# S462 [21] = assay: as above
# Procedure, shortened: as §1
# ST8814 [22] = assay: as above
# Procedure, shortened: as §1
# STS26T [23] = assay: as above
# Procedure, shortened: as §1
# YST-1 [24] = assay: as above
# Procedure, shortened: as §1
Compound,drug sensitivity score (HS-PSS [1]),drug sensitivity score (HS-Sch-2 [2]),drug sensitivity score [3],drug sensitivity score [4],drug sensitivity score (S1507-2 [5]),drug sensitivity score (S462 [6]),drug sensitivity score (ST8814 [7]),drug sensitivity score (STS26T [8]),drug sensitivity score (YST-1 [9]),drug sensitivity score (HS-PSS [10]),drug sensitivity score [11],drug sensitivity score [12],drug sensitivity score (S1507-2 [13]),drug sensitivity score (ST8814 [14]),drug sensitivity score (STS26T [15]),% inhibition (HS-PSS [16]),% inhibition (HS-Sch-2 [17]),% inhibition [18],% inhibition [19],% inhibition (S1507-2 [20]),% inhibition (S462 [21]),% inhibition (ST8814 [22]),% inhibition (STS26T [23]),% inhibition (YST-1 [24])
O=C1CN2Cc3c(ccc(Cl)c3Cl)N=C2N1 [Anagrelide] (max concentration tested 10000 nM),0,8.23,1.41,11.1,0,0,0.934,0,0,0,0,0.367,0,0,0,4.14%,38.7%,17.3%,51.1%,-1.32 ± 1.6%,-5.96 ± 0.63%,17.3%,1.1%,2.83%
C=CCn1c(=O)c2cnc(Nc3ccc(N4CCN(C)CC4)cc3)nc2n1-c1cccc(C(C)(C)O)n1 [MK1775] (max concentration tested 10000 nM),6.59,23.8,14.4,17,16.3 ± 1.6,24.5 ± 0.65,15.8,16.4,14.7,0.11,5.21,9.17,16.1 ± 1.9,14.6,20.3,49.6%,88.4%,67.6%,85.9%,83.3 ± 2%,107.2 ± 0.38%,89.8%,96.8%,82.5%
O=C(CCCCCCC(=O)Nc1ccccc1)NO [Vorinostat] (max concentration tested 10000 nM),4.89,8.6,9.34,8.25,9.06 ± 1.5,7.84 ± 1.1,8.9,6.18,13,2.31,2.83,4.21,7.03 ± 1.4,5.36,3.21,79.2%,99.6%,90.6%,88.6%,103.1 ± 0.86%,101.1 ± 0.69%,101%,83.9%,100%
CN1CCN(c2ccc3nc(-c4c(N)c5c(F)cccc5[nH]c4=O)[nH]c3c2)CC1 [Dovitinib] (max concentration tested 10000 nM),0,0.84,1.65,0.382,3.54 ± 3.6,0.655 ± 0.32,0,0.0001,0.32,0,0,0,0,0,0,-2.95%,22.3%,19.1%,16.2%,21.7 ± 2.2%,18.1 ± 0.51%,-2.1%,10.4%,17.6%
C[C@]1(c2nc3c(C(N)=O)cccc3[nH]2)CCCN1 [Veliparib] (max concentration tested 10000 nM),0,0,0.338,0.954,1.93 ± 2.7,0.0431 ± 0.061,0,0,4.89,0,0,0,0,0,0,10%,2.46%,14.6%,18.2%,10.9 ± 5.5%,12 ± 3.7%,9.88%,10.6%,49%
Clc1ccc(Nc2nnc(Cc3ccncc3)c3ccccc23)cc1 [Vatalanib] (max concentration tested 10000 nM),0,1.77,0,0.0903,0,0,0,0,1.52,0,0,0,0,0,0,11.8%,12.3%,5.92%,13.4%,2.66 ± 4.9%,5.29 ± 6.4%,1.01%,6.33%,10.3%
CC/C(=C(\c1ccccc1)c1ccc(OCCN(C)C)cc1)c1ccccc1 [Tamoxifen] (max concentration tested 10000 nM),2.37,4.43,0.133,2.59,1.29 ± 0.79,0.757 ± 0.86,3.39,0.653,1.24,0,0,0,3.75 ± 4.3,6.84,0.396,55.4%,61.6%,14.8%,52.1%,35.2 ± 12%,24.9 ± 13%,65.2%,22%,29.6%
CCCCCOC(=O)Nc1nc(=O)n([C@@H]2O[C@H](C)[C@@H](O)[C@H]2O)cc1F [Capecitabine] (max concentration tested 10000 nM),0,0,0,0,0,0,0,0.0023,0,0,0,0,0,0,0,-4.86%,-4.92%,1.09%,-3.4%,5.66 ± 1.9%,-4.78 ± 2.1%,-8.14%,12%,-6.84%
C[C@@H](Oc1cc(-c2cnn(C3CCNCC3)c2)cnc1N)c1c(Cl)ccc(F)c1Cl [Crizotinib] (max concentration tested 1000 nM),2.17,0.41,2.09,1.21,0.701 ± 0.72,0.409 ± 0.58,0,0,0.85,0,0,0,1.38 ± 2,0,0,48.6%,19.5%,21.3%,20.8%,13.3 ± 2.3%,13.3 ± 4.8%,7.26%,1.87%,27.5%
CC(C)(C)NC(=O)[C@H]1CC[C@H]2[C@@H]3CC[C@H]4NC(=O)C=C[C@]4(C)[C@H]3CC[C@]12C [Finasteride] (max concentration tested 10000 nM),0,0,0,0,0,0,0,0,0,0,0,0,0.774 ± 1.1,0,0,4.42%,8.19%,0.189%,0.769%,-1.69 ± 4.2%,2.86 ± 8.6%,6.23%,9.35%,2.29%
O=NN(CCCl)C(=O)NCCCl [Carmustine] (max concentration tested 10000 nM),0.02,0,0,0,0,0,0,0,0,0,0,0,0.439 ± 0.62,0,0,10.6%,2.86%,0.41%,-7.14%,-5.49 ± 3.8%,-7.97 ± 1.3%,-3.77%,-1.28%,1.73%
COc1cc2c(N3CCN(C(=O)Nc4ccc(OC(C)C)cc4)CC3)ncnc2cc1OCCCN1CCCCC1 [Tandutinib] (max concentration tested 1000 nM),0,0,0,0,0.0556 ± 0.079,0,0,0,0,0,0,0,0,0,0,7.75%,-3.01%,2.98%,-9.62%,9.56 ± 1.9%,0.414 ± 5.6%,8.58%,6.33%,-3.87%
CO[C@H]1C[C@@H]2CC[C@@H](C)[C@@](O)(O2)C(=O)C(=O)N2CCCC[C@H]2C(=O)O[C@H]([C@H](C)C[C@@H]2CC[C@@H](OC(=O)C(C)(CO)CO)[C@H](OC)C2)CC(=O)[C@H](C)/C=C(\C)[C@@H](O)[C@@H](OC)C(=O)[C@H](C)C[C@H](C)/C=C/C=C/C=C/1C [Temsirolimus] (max concentration tested 100 nM),7.73,5.67,17.5,16.5,7.14 ± 2.6,6.03 ± 0.88,6.83,14.4,9.18,0,0,0,0.915 ± 1.3,0,0,30.8%,29.2%,47%,51.2%,28.4 ± 1.3%,31.8 ± 11%,23.2%,47.2%,46.1%
